Experimental data as given in US20080009506A1, “Imidazole Compound” (priority 2004, published 2008).

Test system: rhythmic bladder contractions induced by substance P
Assay: Inhibitory effect on the rhythmic bladder contractions induced by substance P in anesthetized rats
Assay type: in vivo, Sprague-Dawley female rats
Conditions: 0.25 mg/kg, intravenous, urethane-anesthetized rats, substance P 0.33 μg/kg/min infusion
Method: For the experiments, Sprague-Dawley female rats (9 to 12 weeks old) weighing between 200 to 300 g were used. After urethane anesthetization (subcutaneously administered with a dose of 1.2 g/kg), cannulae were placed in both right and left femoral veins. One intravenous catheter was used for administration of compounds, and the other was for the substance P (0.33 μg/kg/min) infusion. We also cannulated into ureter to pass urine. Polyethylene catheters were inserted into carotid artery for continuous monitoring of arterial blood pressure and heart rate. For continuous infusion, transurethral bladder catheter was inserted into the bladder through the urethra and tied in place by a ligature around the urethral orifice. One end of the catheter was attached to a pressure transducer in order to measure intravesical pressure. The other end of the catheter was used for infusion of saline into the bladder. After stabilization of blood pressure and heart rate and after the bladder was emptied, cystometry was performed by filling the bladder slowly with about 0.6 ml of saline. After about 10 minutes, intravenous infusion of substance P (0.33 μg/kg/min) was started for stabilization of the micturition reflex. Compounds were administered after stable rhythmic bladder contraction was obtained over 15 minutes. […]

In the case of `NC(=O)c1ccc(-n2cc(C(F)(F)F)nc2-c2ccccc2)cc1` [Example 1 (Compound 4)], the “100% inhibition time: time during which the frequency of the rhythmic contraction had been completely inhibited” value is reported as 10.08 min.
